Measurements published in patent publication US11767313B2, “Compounds as nuclear transport modulators and uses thereof” (XWPHARMA LTD., priority 2018, dated 2023).
Where two headings read alike, the source gives them in different places.

Columns and labels:
HCT116 = experiment: Cytotoxicity, cell proliferation assay, HCT116 colon cancer; type: cell-based; details: Table 8
Method: (§1) CellTiter-Glo® Luminescent Cell Viability assay (with Promega CellTiter 96® Luminescent CellTiter-Glo® kit) was used to study the proliferation inhibition by test compounds. Compounds were resuspended in DMSO to make a 25 mM stock suspension. Cells of cancer cell lines or normal tissues were seeded in 96-well plates at 1,500 to 5,000 cells/well overnight. Compounds were 2- or 3-fold diluted serially to obtain 10 concentrations. Then, the drugs were added to the cell wells by Bravo (Agilent) and incubated for 72 hours. The cells were lysed by adding CellTiter-Glo® Reagent (per manufacturer's instructions) and subsequently, the luminescence was read using EnVision® (PerkinElmer).
(§2) The percent of growth was calculated as follows. DMSO-treated cells were employed as vehicle control (High control, HC) and culture medium alone was employed as background (Low control, EC). % growth=100×(Lum sample−Lum EC)/(Lum HC−Lum EC). The ICso was calculated by concentration-response curve fitting using Graphpad Prism.
(§3) The cytotoxicity of test compounds in brain (HCN2), colon cancer (HCT116) and normal colon cell (C8-B4) lines was determined using the cell proliferation assay as described in Example 19.

H2009 = experiment: CellTiter-Glo cell proliferation assay, H2009; type: cell-based; details: Homo sapiens, NCI-H2009, 72 hours, Table 1, read-out: Growth inhibition (IC50)
Method: as §1, §2
(§4) Hematological cancer cell lines tested included OCI-AML3, MV-4-11, KG-1, Kasumi-1, K562, THP-1; solid cancer cell lines tested included U87MG, U251, T98G, LN229, A172, H460, H2009, A549; normal cell lines tested included HCN2 and 3T3-L1. […] However, they were not toxic to in vitro cultured normal cells.

[1] = Pharmacokinetic profile in plasma; type: in vivo; details: P.O., mice
Method: Blood was collected from mice (n=3, or 5) to contribute to the total of 10 time points (pre-dose, 5 min, 15 min, 30 min, 1 hour, 2 hours, 4 hours, 8 hours, 12 hours and 24 hours). At the designated time points, animals were anaesthetized under isoflurane, and approximately 110 μL of blood per time point was collected via retro-orbital puncture into pre-cooled K2EDTA tubes. Blood samples were put on wet ice and centrifuged (2000 g, 5 min at 4° C.) to obtain plasma within 30 minutes of sample collection. All samples were stored frozen at approximately −80° C. until analysis. Prior to analysis, samples were mixed with internal standard in acetonitrile, vortexed, centrifuged, and supernatant was injected for analysis. Concentration of compounds in plasma was determined using LC-MS-MS instrumentation (API 4000, Triple Quadrupole LC/MS/MS Mass Spectrometer). AUC values were calculated using Phoenix Win Nonlin 6.3 software package, PO-Noncompartmental model 200 (extravascular input).

C8-B4 = experiment: Cytotoxicity, cell proliferation assay, C8-B4; type: cell-based; details: Table 8
Method: as §1, §2, §3

3T3-L1 = experiment: CellTiter-Glo cell proliferation assay, 3T3-L1 (normal); type: cell-based; details: Mus musculus
Method: as §1, §2, §4

CRM1 = molecular target: T1, CRM1 (Homo sapiens, UniProt O14980); experiment: PD effects by IHC in U87MG-luc orthotopic model, CRM1; type: in vivo, mice; details: orally three times a week for 2 weeks; vs vehicle control
T1 construct: from tissue; host or cells: U87MG-luc orthotopic xenograft tumours in mouse brain
Method: Based on the bioluminescent signal of tumor, mice were randomly assigned to respective groups using a computer-generated randomization procedure, which included vehicle and compound III-treated groups, respectively, with 5 animals per group. Compound III (20 mg/kg) was given orally 3 times a week (on Day 1, 3, 5) for 2 weeks. Animals for IHC study were euthanized at 6 hours after the last dose and perfused with normal saline followed by fixation with 4% paraformaldehyde. Entire brains containing tumors were collected and kept in fixative for 24 hours before proceeding for paraffin block.

in vivo = details: female, mouse
U87MG-luc tumor = experiment: U87MG-luc human glioblastoma orthotopic model; type: in vivo; details: 20 mg/kg orally, 3 times/week, 4 weeks
Description: Animals: Female BALB/c Nude mice (Supplied by Beijing AniKeeper Biotech Co., Ltd., 6-8 weeks old/18-22 g) were used. General procedures for animal care and using were in accordance with the standard operating procedures (SOPs) of Pharmaron, Inc.
Grouping and Treatments: Grouping and treatment were started on Day 7 post tumor cells inoculation. Mice were imaged to monitor the tumor growth, then mice were randomly assigned to respective groups using a computer-generated randomization procedure. All test articles were administered orally 20 mg/kg with 3 times/week, for 4 weeks post tumor implantations (n=12 per group).
Cell Culture: The Human glioblastoma U87-luc tumor cell line was maintained in vitro as monolayer culture and used for tumor inoculation
Tumor Inoculation and Randomization: 2.5×10^5 luciferase-expressing U87MG-luc tumor cells suspended in 2 μL MEM medium were injected into the right forebrain by positioning the needle at AP: 2.0 mm, ML: 0.5-1.0 mm, DV: 3.0 mm from bregma. The injection was slowly proceeding over a one-minute period. Upon completing injection, the needle was retained for another minute. Measurement Parameters: Tumor growth (monitored by image analysis), body weight and survival days were recorded.
Termination Criterion: Individual animal was humanely sacrificed by carbon dioxide when body weight loss >20% and animals could not get to adequate food or water.
Statistical Analysis: Data was recorded as means±standard error of the mean for all measurement parameters as study designed. All statistical tests were conducted by SPSS 17.0 statistical software, and the level of significance is set at p<0.05.

T1 sequence (O14980 whole entry): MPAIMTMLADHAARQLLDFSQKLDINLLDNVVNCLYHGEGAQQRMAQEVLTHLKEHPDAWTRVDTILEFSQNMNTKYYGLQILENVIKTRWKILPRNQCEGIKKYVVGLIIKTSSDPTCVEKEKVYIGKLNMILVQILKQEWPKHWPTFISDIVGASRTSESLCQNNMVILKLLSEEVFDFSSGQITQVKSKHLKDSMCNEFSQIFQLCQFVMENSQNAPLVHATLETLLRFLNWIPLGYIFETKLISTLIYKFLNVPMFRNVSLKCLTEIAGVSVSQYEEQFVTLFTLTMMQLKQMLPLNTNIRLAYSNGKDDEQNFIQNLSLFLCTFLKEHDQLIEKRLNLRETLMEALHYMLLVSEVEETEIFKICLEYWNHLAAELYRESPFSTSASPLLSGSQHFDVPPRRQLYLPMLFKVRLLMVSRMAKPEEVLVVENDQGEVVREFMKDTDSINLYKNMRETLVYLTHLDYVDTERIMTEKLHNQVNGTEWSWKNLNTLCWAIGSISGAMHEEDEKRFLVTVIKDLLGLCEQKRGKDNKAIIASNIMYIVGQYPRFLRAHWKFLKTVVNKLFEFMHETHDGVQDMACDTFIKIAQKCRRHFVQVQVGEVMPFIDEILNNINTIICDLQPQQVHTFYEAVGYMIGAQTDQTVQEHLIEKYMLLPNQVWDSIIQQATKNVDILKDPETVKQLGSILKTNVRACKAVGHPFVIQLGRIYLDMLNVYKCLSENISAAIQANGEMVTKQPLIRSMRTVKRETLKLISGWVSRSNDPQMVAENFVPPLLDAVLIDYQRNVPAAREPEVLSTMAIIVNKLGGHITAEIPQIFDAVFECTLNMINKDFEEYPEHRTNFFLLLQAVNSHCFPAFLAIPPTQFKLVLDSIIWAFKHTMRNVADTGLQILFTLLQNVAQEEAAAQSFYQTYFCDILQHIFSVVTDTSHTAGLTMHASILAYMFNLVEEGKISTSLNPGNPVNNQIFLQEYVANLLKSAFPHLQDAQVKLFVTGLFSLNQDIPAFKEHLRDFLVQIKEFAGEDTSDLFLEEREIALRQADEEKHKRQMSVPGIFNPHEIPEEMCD

Compound | IC50 (HCT116; Homo sapiens, HCT-116) [µM] | HCT116 Max % inh (HCT116) [%] | IC50 (H2009) [µM] | AUG0-inf [1] [ng·h/mL] | Cmax ([1]; mouse, po) [ng/mL] | Tmax ([1]; mouse, po) [h] | half-life ([1]; mouse, po) [h] | MRT inf ([1]; mouse, po, read-out: MRT0-inf) [h] | MRT last ([1]; mouse, po, read-out: MRT0-last) [h] | IC50 (C8-B4; C8-B4) [µM] | C8-B4 Max % inh (C8-B4) [%] | IC50 (3T3-L1; 3T3-L1, Table 6, read-out: 3T3-L1 IC50) [µM] | IC50 (3T3-L1; 3T3-L1 normal cell line, 72 hours, Table 1, read-out: Growth inhibition (IC50)) [µM] | expression of CRM1 in tumors (IHC) (CRM1) | MTD (in vivo) [mg/kg] | bodyweight loss (individual animal) (U87MG-luc tumor) | medium survival time (MST) (U87MG-luc tumor) [days] | tolerability (U87MG-luc tumor) | reduction in bioluminescence signal compared with the vehicle control group (U87MG-luc tumor; end of treatment period) [%]
O=C(/C=C\n1cnc(-c2cc(C(F)(F)F)cc(S(F)(F)(F)(F)F)c2)n1)NNc1cnccn1 [Compound I, (Z)-3-(3-(3-(pentafluorosulfanyl)-5-(trifluoromethyl)phenyl)-1H-1,2,4-triazol-1-yl)-N′-(pyrazin-2-yl)acrylohydrazide] | 5.96 | 88 | 0.521 | 10430 | 2550 | 0.75 | 4.72 | 5.55 | 4.51 | 4.3 | 91 | > 50 | > 50 |  |  |  |  |  | 
CC(C)(C)C(=O)NNC(=O)/C=C\n1cnc(-c2cc(C(F)(F)F)cc(S(F)(F)(F)(F)F)c2)n1 [Compound III, (Z)-3-(3-(3-(Pentafluorosulfanyl)-5-(trifluoromethyl)phenyl)-1H-1,2,4-triazol-1-yl)-N′-pivaloylacrylohydrazide] |  |  |  |  |  |  |  |  |  |  |  |  |  | significantly decreased | < 25 | less than 10% | 47 | well tolerated by most animals | 99
